Active and inactive are the calls of the source.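 Rule for the calls: active = compounds giving half or more protection of infected cells from virus-caused growth loss, again on retest; inactive = the rest.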 Where a SMILES comes first, the peptide text is derived from it. The star is where a group is joined. Cbz = O=C(OCc1ccccc1)*
System: CEM cells HIV-1 protection, formazan growth assay
Test: NCI AIDS Antiviral Assay
Conditions: for IC50: measured here: growth of uninfected CEM cells
Procedure, shortened: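 Human CEM cells, uninfected and HIV-1-infected, received five drug concentrations, and growth was read by soluble formazan assay. Compounds giving at least 50% protection were retested; reproducible 100% protection defined confirmed active.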

Structure (SMILES)	EC50 [µM]	IC50 [µM]	outcome
CCCC(O)c1ccc2[nH]c3c(C)cc([N+](=O)[O-])c(C)c3c2c1 (stereo unspecified)	> 4.68	> 4.68	
COc1cc2c(c(OC)c1O)C(=O)CC(c1ccc(O)cc1)O2 (stereo unspecified)	> 200	21.9	
Cc1cc(Cc2c(F)c(F)c(Cc3cc(C)no3)c(F)c2F)on1	> 100	> 100	
CC(/C=C/c1ccc(N(C)C)cc1)=N\NC(=S)NCC(C)C	> 200	29.5	
CN(C)c1ccc(/C=C/C(=O)O)cc1	> 1150	> 1150	
OC1CN2CC[C@H](O)C2C(O)[C@@H]1O (stereo partly specified)	61.7	1320	
C/C(CC(=O)Nc1ccc([N+](=O)[O-])cc1)=N\Nc1ccc([N+](=O)[O-])cc1[N+](=O)[O-]	> 24.5	> 24.5	
COC(=O)C(=O)C(C(=O)C(=O)Nc1ccc(C)cc1C)c1nc2ccccc2[nH]c1=O (stereo unspecified)	> 23.4	> 23.4	
CCC(CCCC[C@H]1CC[C@@H]2CC(=O)C[C@H]12)OC (stereo partly specified)	> 200	> 200	
O=C1NC(=O)C(=Cc2ccccc2[N+](=O)[O-])C(=O)N1			inactive
CN(COC(=O)c1ccccc1)c1nc(N(C)COC(=O)c2ccccc2)nc(N(C)COC(=O)c2ccccc2)n1			inactive
Nc1nc(Nc2ccc(Cl)c(Cl)c2)nc2nc[nH]c12	> 200	20.9	
COc1cc(OC)nc(-n2c(N)c(C(=O)O)c3ccc([N+](=O)[O-])cc3c2=O)n1	> 200	42.7	
CCOC(=O)C(=O)N(CC(=O)OC)C(=O)Cc1ccccc1	513	813	
C/C([O-])=c1\c(C)nn2ccc[n+]12	> 309	> 309	
CCC(C)C(NC(=O)C1CCCN1C(=O)OCc1ccccc1)C(=O)O (stereo not drawn) (Cbz-Pro-Ile-OH; configuration not given here)	> 692	> 692	
O=NN1C(c2ccccc2)C2CCCC(C2=O)C1c1ccccc1 (stereo unspecified)	> 58.9	> 58.9	
NC(CSSCC(N)=NC1CCCCC1)=NC1CCCCC1	> 200	95.5	
N#C/C(=C\c1ccc(O)c(O)c1)C(=O)NCN1CCN(C(=O)/C(C#N)=C/c2ccc(O)c(O)c2)CC1	> 200	19.1	
CCOC(=O)N1CCC(=O)C(CNC23CC4CC(CC(C4)C2)C3)C1 (stereo unspecified)	> 4170	204	
Cc1ccc(S(=O)(=O)Sc2nnnn2C)cc1	> 251	53.7	

Structure (SMILES)	EC50 [µM]	IC50 [µM]	outcome
C[Si](C)(/C(=C/COCc1ccccc1)CCOC1CCCCO1)c1ccccc1 (stereo unspecified)	> 9.12	> 9.12	
O=C(Nc1ccc(C2=NCCN2)cc1)c1cccc(NC(=S)Nc2ccc(C3=NCCN3)cc2)c1	33.1	112	
Cc1cc(O)ccc1C1(c2ccc(F)cc2)OC(=O)c2ccccc21 (stereo unspecified)			inactive
CC(=O)NCc1c(C(N)=O)ncn1Cc1ccccc1			inactive
Nc1ccc2c(c1)C(=O)N(O)C2=O	> 1410	759	
COc1ccc(OC)c(-c2cc(=O)c3c(OC)c(OC)c(OC)c(OC)c3o2)c1	> 200	29.5	
O=C(/C=C/c1cccc(Br)c1)c1ccccc1	> 13.2	> 13.2	
CC(C)=NNC=N/C(C#N)=C(\N)C#N	> 200	> 200	
CN(C)c1cccc2c1C(=O)C=CC21CCc2ccc(N(C)C)c3c(N(C)C)ccc1c23 (stereo unspecified)	> 200	8.71	
CC1=C(C(=O)Nc2cccc(C(F)(F)F)c2)C(c2ccc(O)cc2)C(C(=O)Nc2cccc(C(F)(F)F)c2)=C(C)N1	> 32.4	> 32.4	
c1ccc(C2CN=C(c3ccccn3)C(c3ccccn3)=N2)cc1 (stereo unspecified)	> 60.3	> 60.3	
C=CCCCCCCCCC(=O)NCCN1CCOCC1	> 200	> 200	
Cc1cn(CC2(CO)CCC2)c(=O)[nH]c1=O	> 200	> 200	
CCOC(=O)[C@H]1Nc2ccc(Cl)cc2[C@H]2CCC[C@@H]12	> 67.6	> 67.6	
O=C1/C(=C\c2cccc(Oc3ccccc3)c2)S(=O)(=O)C(c2ccccc2)N1Cc1ccccc1 (stereo unspecified)	> 20	> 20	
Ic1cc2c(cc1C1SCCCS1)OCO2	> 251	> 251	
CCOC(=O)CN1CCC2CC1c1c([nH]c3ccccc13)C21OCCO1 (stereo unspecified)	> 200	> 200	
C/C(=C\[C@H]1C[C@@H]([C@@H]2CC[C@]34C[C@]23C=C[C@@H]2[C@@]3(C)CC=C5C[C@@H](c6ccccc6)OC[C@]5(C)[C@@H]3C[C@@H](O)[C@]24C)C(=O)O1)CO	> 200	1.1	
CCOC(=O)c1cnc2sc3ccc4ccccc4c3n2c1=O	> 27.5	> 27.5	
NC(=O)CC(NC(=O)OCc1ccccc1)C(=O)NC(Cc1ccccc1)C(=O)NC(Cc1ccccc1)NC(=O)C(Cc1c[nH]c2ccccc12)C(=O)O (stereo unspecified)	> 50.1	> 50.1	
CN(C)C(=O)NC1(N(C)C)CC1	> 200	> 200	

Structure (SMILES)	EC50 [µM]	IC50 [µM]	outcome
COc1c2c(cc3c1C(=O)Cc1ccc4c(c1CN(C)CC3)OCO4)OCO2	> 35.5	> 35.5	
CC1=C(O[Si](C(C)C)(C(C)C)C(C)C)C2CC1(OS(=O)(=O)C(F)(F)F)[C@H]1C(=O)N(c3ccccc3)C(=O)[C@@H]21 (stereo partly specified)	> 4.79	> 4.79	
CC1(C)CC(=O)C(/C=N/C(=S)NCCc2ccccc2)=C(O)C1	> 200	> 200	
COc1c2occc2c(OC)c2c(=O)c(S(=O)(=O)NC(=O)Nc3ccc(Cl)cc3)coc12	> 200	97.7	
COc1ccc(/C=N/NS(=O)(=O)c2ccc(NC(C)=O)cc2)cc1	> 525	> 525	
Cn1c([N+](=O)[O-])cnc1N1CCN(c2nncs2)C1=O	> 200	> 200	
[N-]=[N+]=Nc1nnc(CCCCc2nnc(N=[N+]=[N-])o2)o1	> 468	138	
COc1ccccc1/C=C1\S/C(=N/Nc2nc(C)c(C(C)=O)s2)NC1=O	> 200	112	
Cc1cc(NS(=O)(=O)c2ccc(NC(=O)c3ccc4nc5ccccc5c(Nc5ccc(S(=O)(=O)Nc6cc(C)on6)cc5)c4c3)cc2)no1	67.6	> 100	
CCN1C[C@]2(COC)CCC(O)C34[C@@H]5C[C@@H]6C(O)[C@@H]5[C@](O)(C[C@@H]6OC)[C@@](O)([C@H]13)[C@@H](OC)[C@@H]42 (stereo partly specified)			inactive
CC(C)CC(C#CCCOC(=O)c1ccccc1)OC(=O)c1ccccc1 (stereo unspecified)	> 200	95.5	
O=C1CCCCC/C1=C\c1cccc(F)c1	> 200	> 100	
CCOc1ccc(C(=O)CCN2CCC3CCC(C3)C2)cc1 (stereo unspecified)	> 200	13.8	
CCCCN1C(=O)c2cccc3cccc(c23)C1=O	> 200	112	
CCOC(CN(C)C(=O)Nc1ccc(Cl)c(Cl)c1)OCC	> 200	14.8	
CN(CCC(N)CC(=O)NC1C=CC(n2ccc(N)nc2=O)OC1C(=O)O)C(=N)N (stereo unspecified)	> 200	31.6	inactive
[Cu+2].[NH-]c1cc(N)ccc1O.[NH-]c1cc(N)ccc1O			inactive
COC(CCC(C)C1OC23CC(OC(=O)CC(C(C)O)OC(=O)CC(O)(O2)C(C)CC3(C)C)C1C)c1cccc(O)c1 (stereo unspecified)			active
O=c1c2cc(Br)ccc2[nH]c(=S)n1-c1ccc(Br)cc1	> 45.7	> 45.7	
